Results on 5 molecules are retold here after ChEMBL document CHEMBL1938294, “DNA binding and anticancer activity of naphthalimides with 4-hydroxyl-alkylamine side chains at different lengths” (Bioorg Med Chem Lett, 2012).

Usually IC50 stands for the midpoint of a concentration-inhibition curve. Low values mean greater potency, high ones weaker potency. The Tm is the temperature at which the thermal transition is half complete. As a reminder, the ΔTm is the shift of the melting midpoint relative to a reference.

The subject of experiment [1] is Nucleic Acid. Briefly: Binding affinity to calf thymus DNA by UV-Vis spectroscopy. It is filed as nucleic-acid assay. The settings on record: Bos taurus.
In experiment [2] the test system is Nucleic Acid. Briefly: Binding affinity to calf thymus DNA assessed as hypochromicity at 1 x 10^-5 M by UV-Vis spectroscopy. It counts as nucleic-acid assay. As to conditions: Bos taurus.
Experiment [3] concerns Nucleic Acid. Briefly: Binding affinity to calf thymus DNA assessed as efficiency of fluorescence enhancement at 1 x 10^-5 M by fluorescence spectroscopy. It is filed as nucleic-acid assay. The settings on record: Bos taurus.
Experiment [4] deals with Nucleic Acid. Nature of the experiment: Binding affinity to calf thymus DNA assessed as intercalation at 2 x 10^-5 M by CD spectroscopy. It is filed as nucleic-acid assay. The settings on record: Bos taurus.
The next experiment relates to Bel-7402. Briefly: Cytotoxicity against human Bel7402 cells by MTT assay. It counts as functional, cell-based. In general terms: Formazan colour is commonly taken as a measure of viable cells.
For experiment [5], the system named is Nucleic Acid. Briefly: Binding affinity to calf thymus DNA assessed as intercalation at 1 x 10^-5 M by fluorescence spectroscopy. It counts as nucleic-acid assay. As to conditions: Bos taurus.
The subject of experiment [6] is Nucleic Acid. Nature of the experiment: Binding affinity to calf thymus DNA assessed as melting temperature at 5 x 10^-6 M by thermal denaturation assay (reference value: 68.4 degC). It counts as nucleic-acid assay. As to conditions: Bos taurus.
The test system of experiment [7] is Nucleic Acid. Briefly: Binding affinity to calf thymus DNA assessed as bathochromic shift at 1 x 10^-5 M by UV-Vis spectroscopy. It counts as nucleic-acid assay. The settings on record: Bos taurus.
The subject of experiment [8] is Nucleic Acid. Briefly: Binding affinity to calf thymus DNA assessed as change in melting temperature at 5 x 10^-6 M by thermal denaturation assay. It is filed as nucleic-acid assay. As to conditions: Bos taurus.
For another experiment, the system named is HL-60. Briefly: Cytotoxicity against human HL60 cells by MTT assay. It is filed as functional, cell-based.

Active and inactive are the calls of the source. The rule behind the calls is not given here.

In turn, `CN(C)CCN1C(=O)c2cccc3c(NCCCCCCO)ccc(c23)C1=O` returned a K with Nucleic Acid [1] of 1.1 ×10⁴ /M. Besides, the figures for the Activity with Nucleic Acid [2] and with Nucleic Acid [7] were 31% and 453 nm, respectively. Besides, the KSV in the experiment with Nucleic Acid [3] worked out at 7.12 ×10³ /M. In addition, the result in the experiment with Nucleic Acid [4] and in the experiment on Nucleic Acid [5] was Active. For the same molecule, the IC50 in the experiment on Bel-7402 was determined as 17.5 µM; in the experiment with HL-60, 20.5 µM. Besides, in the experiment on Nucleic Acid [6], the Tm worked out at 71.8 °C. For the same molecule, in the experiment with Nucleic Acid [8], the thermal shift (ΔTm) was 3.4 °C.

Turning to `CN(C)CCN1C(=O)c2cccc3c(NCCCCO)ccc(c23)C1=O`, the K in the experiment with Nucleic Acid [1] was 0.74 ×10⁴ /M. The Activity with Nucleic Acid [2] was 30%; in the experiment on Nucleic Acid [7], 452 nm. In the experiment on Nucleic Acid [3], the KSV was 1.15 ×10³ /M. Further, the result with Nucleic Acid [4] and in the experiment on Nucleic Acid [5] was Active. Also, the IC50 with Bel-7402 came out at 5.57 µM; in the experiment with HL-60, 11.2 µM. In addition, the midpoint of thermal melting (Tm) in the experiment on Nucleic Acid [6] was found to be 71.2 °C. Also, the ΔTm in the experiment on Nucleic Acid [8] came to 2.8 °C.

Turning to `CN(C)CCN1C(=O)c2cccc3c(NCCO)ccc(c23)C1=O`, the K with Nucleic Acid [1] worked out at 1.44 ×10⁴ /M. The Activity in the experiment on Nucleic Acid [2] amounted to 31%; with Nucleic Acid [7] it was 447 nm. The KSV in the experiment with Nucleic Acid [3] amounted to 3.12 ×10³ /M. Further, the result with Nucleic Acid [4] and in the experiment on Nucleic Acid [5] was Active. Moreover, the IC50 is 30.9 µM with Bel-7402 and 25.9 µM with HL-60. Also, the melting temperature (Tm) in the experiment on Nucleic Acid [6] worked out at 71 °C. Further, the thermal shift (ΔTm) with Nucleic Acid [8] came out at 2.6 °C.

Take `CN(C)CCN1C(=O)c2cccc3c(NCCCO)ccc(c23)C1=O`: the K in the experiment with Nucleic Acid [1] is 1.03 ×10⁴ /M. Besides, the Activity with Nucleic Acid [2] was 31%; in the experiment on Nucleic Acid [7] it was 453 nm. Moreover, the KSV in the experiment on Nucleic Acid [3] was 4.03 ×10³ /M. Besides, the outcome in the experiment with Nucleic Acid [4] and with Nucleic Acid [5] was Active. Besides, the IC50 with Bel-7402 was determined as 33.5 µM; in the experiment with HL-60 it was 38.5 µM. Moreover, in the experiment with Nucleic Acid [6], the Tm is 71.9 °C. The thermal shift (ΔTm) with Nucleic Acid [8] turned out to be 3.5 °C.

For `CN(C)CCN1C(=O)c2cccc3c(NCCCCCO)ccc(c23)C1=O`, in the experiment on Nucleic Acid [1], the K came to 1.2 ×10⁴ /M. Also, the Activity is 31% with Nucleic Acid [2] and 453 nm in the experiment with Nucleic Acid [7]. In addition, in the experiment on Nucleic Acid [3], the KSV was 4.36 ×10³ /M. For the same molecule, the outcome in the experiment with Nucleic Acid [4] and in the experiment with Nucleic Acid [5] was Active. The IC50 with Bel-7402 is 9.17 µM; in the experiment with HL-60, 17.7 µM. Also, the Tm in the experiment on Nucleic Acid [6] was found to be 72.2 °C. For the same molecule, in the experiment with Nucleic Acid [8], the thermal shift (ΔTm) was found to be 3.8 °C.
